Here are results for 1 compound from US10905680B2, “Methods of treatment for cholestatic and fibrotic diseases” (Genfit, priority 2016, dated 2021).

SMILES strings stand for the structures.

The test system of test [1] is human primary hepatic stellate cells (hHSC). The experiment in a line: COL1A1 transcripts in TGFβ1-induced human HSC (RT-qPCR). The format is cell-based. To be noted: TGFβ1 1 ng/ml, 24 hours. The procedure: Serum-deprived HSC were preincubated for 1 hour with NTZ (A) or TZ (B) before the activation with TGFβ1 (1 ng/ml). After 24 hours of incubation, the expression of COL1A1 was measured by RT-qPCR. Expression values were transformed into fold induction over TGFβ1 control. Data are presented as mean (triplicates)±standard deviation (SD). Statistical analyses were performed by one-way ANOVA followed by Bonferroni post-hoc tests, using Sigma Plot 11.0 software. [*: p<0.05; **: p<0.01; ***: p<0.001 (comparison versus TGFβ1 1 ng/mL group)]. The human primary hepatic stellate cells (hHSC) (Innoprot) were cultured under standard conditions, as described above. The cells were subsequently plated at a density of 7×10^4 cells/well into 24-well plates for gene expression studies, and at a density of 2×10^4 cells/well into 96-well plates for the measure of α-SMA by ELISA. The next day, cell culture medium was removed, and cells were washed with PBS (Invitrogen cat #14190). hHSC were deprived for 24 hours in serum-free and SteCGS-free medium. […] Quantitative PCR was then carried out using the MyiQ Single-Color Real-Time PCR Detection System (Biorad). […] Expression levels were determined using the standard curve equation for both the housekeeping gene and the target gene (taking into account the specific PCR efficiency of each target gene).
(In general: In qPCR the cycle at which signal appears reflects the starting amount.)

Test [2] relates to human renal interstitial fibroblasts (HRIF). The experiment in a line: TGFβ1-induced expression of α-SMA protein in human renal fibroblasts (ELISA). The format is cell-based. To be noted: TGFβ1 3 ng/ml, 48 hours. How it is done:
Serum-deprived Human Renal Interstitial Fibroblasts (HRIF) were preincubated for 1 hour with NTZ (A) or TZ (B) before the activation with the profibrogenic cytokine TGFβ1 (3 ng/ml). After 48 hours of incubation, the expression of α-SMA was measured by ELISA. The obtained values were normalized over TGFβ1 control. Data are presented as mean (quadruplicates)±SEM (Standard Error of Mean). […] For the activation experiments with TGFβ1, the HRIF were plated at a density of 6.5×10^3 cells per well in 384-well plates. The next day, cell culture medium was removed, and cells were washed with PBS (Invitrogen cat #14190). HRIF were deprived for 24 hours in serum-free, and FGS-free medium. For the treatments with NTZ or TZ, the serum-deprived HRIF were preincubated for 1 hour with the compounds followed by addition of the profibrogenic stimuli TGFβ1 (PeproTech cat #100-21, 3 ng/mL) in serum-free, -FGS-free medium for an additional 48 hour period. Finally, the cells were washed with PBS (Invitrogen, cat #14190) before the addition of 30 μl of lysis buffer (CelLytic™ MT reagent; Sigma #C3228). Plates were then incubated for 30 min on ice using a plate shaker, and subsequently stored at −20° C. The level of α-SMA was measured using a Sandwich ELISA. Briefly, the wells of an ELISA plate were first coated with the capture antibody (mouse monoclonal anti-ACTA2, Abnova) at 4° C. overnight. […]
Background: ELISA stands for enzyme-linked immunosorbent assay.

Take `O=C(Nc1ncc([N+](=O)[O-])s1)c1ccccc1O` [TZ, 2-hydroxy-N-(5-nitro-2-thiazolyl)benzamide]: the COL1A1 transcripts result in test [1] is “reduce”. In addition, the “antifibrotic effects (α-SMA) in TGFβ-activated human renal interstitial fibroblasts” value in test [2] was “significant and dose-dependent antifibrotic effects”.
